Source: patent US9902696B2, “1,4-substituted piperidine derivatives” (Cephalon, Inc., priority 2015, dated 2018)
Where a name gives a salt, the structure may show the parent alone.

What follows are molecules tested against T1, recombinant human baculovirus-expressed GST-tagged FASN (Homo sapiens, UniProt P49327) (assay: FASN enzyme activity assay, fluorescence-based detection of CoA with CPM). Conditions: 5 nM FASN, 150 μM NADPH, 10 μM acetyl-CoA, 25 μM malonyl-CoA, 90 minutes incubation; read-out: IC50 data for Additional Compounds of Formulae I-V(a): Activity.
T1 construct: GST
Type: biochemical
Method in brief: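 CoA product reacted with thiol-reactive CPM (diluted to 50 μM in 70% ethanol), read at 390/530 nm after 30 min. Preceding reaction: 90 min, 5 nM recombinant GST-FASN, 150 μM NADPH, 10 μM acetyl-CoA, 25 μM malonyl-CoA, pH 7.5 HEPES, 0.5% DMSO. IC50s fitted by nonlinear sigmoidal regression.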

T1 sequence (P49327 whole entry): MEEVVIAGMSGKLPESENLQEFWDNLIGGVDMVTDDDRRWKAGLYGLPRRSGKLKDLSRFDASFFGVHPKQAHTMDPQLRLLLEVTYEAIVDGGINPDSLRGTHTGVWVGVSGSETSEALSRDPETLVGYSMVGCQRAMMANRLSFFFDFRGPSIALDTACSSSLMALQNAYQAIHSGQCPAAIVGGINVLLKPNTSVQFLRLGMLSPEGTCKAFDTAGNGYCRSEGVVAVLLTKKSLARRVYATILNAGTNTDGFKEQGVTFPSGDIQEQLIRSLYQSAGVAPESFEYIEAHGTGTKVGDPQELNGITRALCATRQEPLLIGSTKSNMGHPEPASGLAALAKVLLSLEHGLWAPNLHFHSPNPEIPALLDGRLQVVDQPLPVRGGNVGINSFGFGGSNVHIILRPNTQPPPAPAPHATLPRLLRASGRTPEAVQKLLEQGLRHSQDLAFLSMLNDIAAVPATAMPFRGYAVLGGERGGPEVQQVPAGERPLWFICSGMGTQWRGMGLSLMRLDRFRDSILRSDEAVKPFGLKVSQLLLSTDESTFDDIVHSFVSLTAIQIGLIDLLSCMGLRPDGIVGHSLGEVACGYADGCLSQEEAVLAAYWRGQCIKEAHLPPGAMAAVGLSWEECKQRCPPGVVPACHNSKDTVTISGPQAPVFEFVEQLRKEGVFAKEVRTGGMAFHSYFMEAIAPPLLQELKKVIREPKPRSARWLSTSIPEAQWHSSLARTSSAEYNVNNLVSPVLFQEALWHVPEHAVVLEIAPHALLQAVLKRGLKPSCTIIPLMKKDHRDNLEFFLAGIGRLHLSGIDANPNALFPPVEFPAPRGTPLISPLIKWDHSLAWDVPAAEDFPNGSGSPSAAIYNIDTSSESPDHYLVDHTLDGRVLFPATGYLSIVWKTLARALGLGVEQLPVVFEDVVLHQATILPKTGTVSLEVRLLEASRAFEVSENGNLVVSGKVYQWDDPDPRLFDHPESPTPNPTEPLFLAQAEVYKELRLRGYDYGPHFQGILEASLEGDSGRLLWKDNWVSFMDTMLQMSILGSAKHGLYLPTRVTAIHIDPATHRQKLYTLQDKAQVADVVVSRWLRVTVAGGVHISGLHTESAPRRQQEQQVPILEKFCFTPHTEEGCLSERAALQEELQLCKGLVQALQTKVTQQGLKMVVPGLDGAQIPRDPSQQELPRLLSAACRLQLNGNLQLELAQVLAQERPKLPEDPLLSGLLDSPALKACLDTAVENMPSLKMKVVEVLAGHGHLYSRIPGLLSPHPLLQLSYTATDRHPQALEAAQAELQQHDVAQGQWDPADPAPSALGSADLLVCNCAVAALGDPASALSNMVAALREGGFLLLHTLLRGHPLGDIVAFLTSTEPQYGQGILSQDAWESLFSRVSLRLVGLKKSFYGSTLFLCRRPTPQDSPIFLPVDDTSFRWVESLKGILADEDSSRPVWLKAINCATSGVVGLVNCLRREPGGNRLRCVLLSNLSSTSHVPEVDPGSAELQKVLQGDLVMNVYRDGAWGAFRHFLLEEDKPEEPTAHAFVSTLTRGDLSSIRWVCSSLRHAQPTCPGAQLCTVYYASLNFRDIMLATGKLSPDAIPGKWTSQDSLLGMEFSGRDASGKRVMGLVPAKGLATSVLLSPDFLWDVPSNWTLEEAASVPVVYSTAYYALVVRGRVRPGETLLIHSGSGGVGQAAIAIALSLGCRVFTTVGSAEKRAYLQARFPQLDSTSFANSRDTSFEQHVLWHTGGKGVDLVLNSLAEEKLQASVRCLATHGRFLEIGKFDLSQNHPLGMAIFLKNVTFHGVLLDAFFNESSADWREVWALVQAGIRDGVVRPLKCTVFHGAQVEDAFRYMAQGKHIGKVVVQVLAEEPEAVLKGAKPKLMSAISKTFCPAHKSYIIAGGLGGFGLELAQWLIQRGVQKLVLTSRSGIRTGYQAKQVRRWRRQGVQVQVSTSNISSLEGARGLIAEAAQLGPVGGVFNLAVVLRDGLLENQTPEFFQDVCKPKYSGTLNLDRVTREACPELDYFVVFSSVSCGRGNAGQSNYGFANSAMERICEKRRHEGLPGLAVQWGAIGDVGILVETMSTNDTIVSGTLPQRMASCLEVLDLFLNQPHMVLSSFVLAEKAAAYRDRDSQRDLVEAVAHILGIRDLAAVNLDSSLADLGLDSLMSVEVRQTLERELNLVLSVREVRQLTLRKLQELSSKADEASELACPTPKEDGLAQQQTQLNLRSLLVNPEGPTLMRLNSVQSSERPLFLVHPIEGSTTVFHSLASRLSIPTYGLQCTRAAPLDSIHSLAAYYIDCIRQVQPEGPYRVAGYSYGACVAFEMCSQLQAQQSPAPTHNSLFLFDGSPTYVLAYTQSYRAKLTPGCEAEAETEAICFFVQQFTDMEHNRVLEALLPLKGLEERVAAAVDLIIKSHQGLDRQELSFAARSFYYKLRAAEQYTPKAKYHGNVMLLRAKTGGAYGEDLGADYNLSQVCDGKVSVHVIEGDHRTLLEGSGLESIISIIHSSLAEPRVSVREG

Row | SMILES | IC50
1 | Cc1c(-c2ccc(OC3CCN(C(=O)OCCN4CCCC4)CC3)cc2)ccc2cccnc12 [Example 547, 2-Pyrrolidin-1-ylethyl 4-[4-(8-methyl-7-quinolyl)phenoxy]piperidine-1-carboxylate, 2HCl] | 1 to 10 µM
2 | CONC(=O)N1CCC(Oc2ccc(-c3ccc4nccn4c3C)cc2)CC1 [Example 611, N-Methoxy-4-[4-(5-methylimidazo[1,2-a]pyridin-6-yl)phenoxy]piperidine-1-carboxamide] | 1 to 10 µM
3 | Cc1c(-c2ccc(OC3CCN(C(=O)OC4CCCOC4)CC3)cc2)ccc2cccnc12 (stereo not shown) [Example 557, Tetrahydropyran-3-yl 4-[4-(8-methyl-7-quinolyl)phenoxy]piperidine-1-carboxylate] | 1 to 10 µM

Same assay, conditions: 5 nM FASN, 150 μM NADPH, 10 μM acetyl-CoA, 25 μM malonyl-CoA, 90 minutes incubation; read-out: IC50 data for Compounds of Formulae I-V/V(a): Activity

Row | SMILES | IC50
4 | COCCOc1c(-c2ccc(OC3CCN(C(=O)[C@H]4CCCO4)CC3)cc2)ccc2cccnc12 [Example 186, [4-[4-[8-(2-Methoxyethoxy)-7-quinolyl]phenoxy]-1-piperidyl]-[(2R)-tetrahydrofuran-2-yl]methanone, HCl] | 0.001 to 0.099 µM
5 | CC(C)C(=O)N1CCC(Oc2ccc(-c3ccc(C#N)cc3)cc2)CC1 [Example 494, 4′-(1-Isobutyrylpiperidin-4-yloxy)-biphenyl-4-carbonitrile] | 1 to 10 µM
6 | COc1ccc(-c2ccc(OC3CCN(C(=O)OC(C)(C)C)CC3)cc2)cc1OC [Example 489, 4-(3′,4′-Dimethoxybiphenyl-4-yloxy)-piperidine-1-carboxylic acid t-butyl ester] | 1 to 10 µM
7 | N#Cc1cnc2cc(-c3ccc(OC4CCN(C(=O)C5CC5)CC4)cc3)ccc2c1 [Example 279, 7-[4-(1-Cyclopropanecarbonyl-piperidin-4-yloxy)-phenyl]-quinoline-3-carbonitrile] | 0.1 to 0.999 µM
8 | O=C1OCCN1C(=O)N1CCC(Oc2ccc(-c3cnc4ccccc4c3)cc2)CC1 [Example 241, 3-[4-(4-Quinolin-3-yl-phenoxy)-piperidine-1-carbonyl]-oxazolidin-2-one] | 1 to 10 µM
9 | O=C([C@H]1CCCO1)N1CCC(Oc2ccc(-c3cnc4cc(F)ccc4c3)cc2)CC1 [Example 479, {4-[4-(7-Fluoroquinolin-3-yl)-phenoxy]-piperidin-1-yl}-(R)-tetrahydro-furan-2-yl-methanone] | 0.001 to 0.099 µM
10 | COc1cc(-c2ccc(OC3CCN(C(=O)C4CCC4)CC3)cc2)cn2nccc12 [Example 412, Cyclobutyl-{4-[4-(4-methoxypyrazolo[1,5-a]pyridin-6-yl)-phenoxy]-piperidin-1-yl}-methanone, HCl] | 0.001 to 0.099 µM
11 | O=C(C1CC1)N1CCC(Oc2ccc(-c3ccc4cnc(Cl)cc4c3)cc2)CC1 [Example 414, {4-[4-(3-Chloroisoquinolin-6-yl)-phenoxy]-piperidin-1-yl}-cyclopropyl-methanone] | 1 to 10 µM
12 | Cc1ccoc1C(=O)N1CCC(Oc2ccc(-c3cnc4ccccc4c3)cc2)CC1 [Example 121, (3-Methylfuran-2-yl)-[4-(4-quinolin-3-yl-phenoxy)-piperidin-1-yl]-methanone, HCl] | 1 to 10 µM
13 | O=C(C1CC1)N1CCC(Oc2ccc(-c3cncc(Oc4ccccc4)c3)cc2)CC1 [Example 399, Cyclopropyl-{4-[4-(5-phenoxy-pyridin-3-yl)-phenoxy]-piperidin-1-yl}-methanone, HCl] | 1 to 10 µM
14 | CC(C)(C)OC(=O)N1CCC(Oc2ccc(-c3cnc4ccccc4c3)cc2F)CC1 [Example 5, 4-(2-Fluoro-4-quinolin-3-yl-phenox)piperidine-1-carboxylic acid t-butyl ester] | 1 to 10 µM
15 | Cc1cc2cccnc2cc1-c1ccc(OC2CCN(C(=O)[C@H]3CCCO3)CC2)cc1 [Example 275, {4-[4-(6-Methylquinolin-7-yl)-phenoxy]-piperidin-1-yl}-(R)-tetrahydro-furan-2-yl-methanone] | 0.1 to 0.999 µM
16 | Cc1ccc2ncc(-c3ccc(OC4CCN(C(=O)C5CC5)CC4)cc3)cc2c1 [Example 484, Cyclopropyl-{4-[4-(6-methylquinolin-3-yl)-phenoxy]-piperidin-1-yl}-methanone, HCl] | 0.1 to 0.999 µM
17 | O=C([C@H]1CCCO1)N1CCC(Oc2ccc(-c3ccc4c(C5CC5)nccc4c3)cc2)CC1 [Example 440, {4-[4-(1-Cyclopropylisoquinolin-6-yl)-phenoxy]-piperidin-1-yl}-(R)-tetrahydrofuran-2-yl-methanone] | 0.001 to 0.099 µM
18 | CC(C)Oc1c(-c2ccc(OC3CCN(C(=O)C4CC4)CC3)cc2)ccc2cccnc12 [Example 170, Cyclopropyl-{4-[4-(8-isopropoxyquinolin-7-yl)-phenoxy]-piperidin-1-yl}-methanone, HCl] | 0.1 to 0.999 µM
19 | CCC(=O)N1CCC(Oc2ccc(-c3ccc4ncnn4c3C)cc2)CC1 [Example 313, 1-{4-[4-(5-Methyl-[1,2,4]triazolo[1,5-a]pyridin-6-yl)-phenoxy]-piperidin-1-yl}-propan-1-one] | 1 to 10 µM
20 | Cc1c(-c2ccc(OC3CCN(C(=O)[C@H]4CCCO4)CC3)cc2)ccc2cccnc12 [Example 69, {4-[4-(8-Methylquinolin-7-yl)-phenoxy]-piperidin-1-yl}-(R)-tetrahydro-furan-2-yl-methanone] | 0.001 to 0.099 µM
21 | COc1c(-c2ccc(OC3CCN(C(=O)[C@H]4CCCO4)CC3)cc2)ccc2cccnc12 [Example 272, {4-[4-(8-Methoxyquinolin-7-yl)-phenoxy]-piperidin-1-yl}-(R)-tetrahydro-furan-2-yl-methanone, TFA salt] | 0.001 to 0.099 µM
22 | O=C(C1CC1)N1CCC(Oc2ccc(-c3cncc(-c4ccccc4)c3)cc2)CC1 [Example 384, Cyclopropyl-{4-[4-(5-phenyl-pyridin-3-yl)-phenoxy]-piperidin-1-yl}-methanone, TFA salt] | 1 to 10 µM

Row | SMILES | IC50
23 | CCC(=O)N1CCC(Oc2ccc(-c3ccc(C#N)cc3)cc2)CC1 [Example 493, 4′-(1-Propionyl-piperidin-4-yloxy)-biphenyl-4-carbonitrile] | 1 to 10 µM
24 | Cc1c(-c2ccc(OC3CCN(C(=O)C4CCC4)CC3)cc2)cnc2ccccc12 [Example 62, Cyclobutyl-{4-[4-(4-methylquinolin-3-yl)-phenoxy]-piperidin-1-yl}-methanone] | 0.001 to 0.099 µM
25 | O=C(N1CCC(Oc2ccc(-c3cnc4ccccc4n3)cc2)CC1)N1CCCO1 [Example 81, Isoxazolidin-2-yl-[4-(4-quinoxalin-2-yl-phenoxy)-piperidin-1-yl]-methanone] | 0.001 to 0.099 µM
26 | Cc1ccc2ccc(-c3ccc(OC4CCN(C(=O)C5CCC5)CC4)cc3)c(F)c2n1 [Example 27, Cyclobutyl-{4-[4-(8-fluoro-2-methylquinolin-7-yl)-phenoxy]-piperidin-1-yl}-methanone] | 1 to 10 µM
27 | CCC(=O)N1CCC(Oc2ccc(-c3cc4ncccc4cc3C)cc2)CC1 [Example 276, 1-{4-[4-(6-Methylquinolin-7-yl)-phenoxy]-piperidin-1-yl}-propan-1-one] | 1 to 10 µM
28 | O=C([C@H]1CCCO1)N1CCC(Oc2ccc(-c3ccc4cccnc4c3OCCN3CCCC3)cc2)CC1 [Example 183] | 1 to 10 µM
29 | Cc1nccc2c(C)c(-c3ccc(OC4CCN(C(=O)[C@H]5CCCO5)CC4)cc3)ccc12 [Example 474, [4-[4-(1,5-Dimethyl-6-isoquinolyl)phenoxy]-1-piperidyl]-[(2R)-tetrahydrofuran-2-yl]methanone, HCl] | 0.001 to 0.099 µM
30 | O=C(C1CC1)N1CCC(Oc2ccc(-c3cccc(Oc4ccccc4)c3)cc2)CC1 [Example 511, Cyclopropyl-[4-(3′-phenoxybiphenyl-4-yloxy)-piperidin-1-yl]-methanone] | 1 to 10 µM
31 | CC(C)C(=O)N1CCC(Oc2ccc(-c3cncc(-c4ccccc4)c3)cc2)CC1 [Example 383] | 1 to 10 µM
32 | CCC(=O)N1CCC(Oc2ccc(-c3ccc(OC)c(OC)c3)cc2)CC1 [Example 491, 1-[4-(3′,4′-Dimethoxy-biphenyl-4-yloxy)-piperidin-1-yl]-propan-1-one] | 0.1 to 0.999 µM
33 | CCC(=O)N1CCC(Oc2ccc(-c3cccc(-c4ccccn4)c3F)cc2)CC1 [Example 395, 1-[4-(2′-Fluoro-3′-pyridin-2-yl-biphenyl-4-yloxy)-piperidin-1-yl]-propan-1-one] | 1 to 10 µM
34 | CS(=O)(=O)CC(=O)N1CCC(Oc2ccc(-c3cnc4ccccc4c3)cc2)CC1 [Example 117, 2-Methanesulfonyl-1-[4-(4-quinolin-3-yl-phenoxy)-piperidin-1-yl]-ethanone, HCl] | 1 to 10 µM
35 | CCC(=O)N1CCC(Oc2ccc(-c3cnc4cc(OC)c(Cl)cc4c3)cc2)CC1 [Example 447, 1-{4-[4-(6-Chloro-7-methoxyquinolin-3-yl)-phenoxy]-piperidin-1-yl}-propan-1-one] | 1 to 10 µM
36 | COc1nccc2cc(-c3ccc(OC4CCN(C(=O)C5CCC5)CC4)cc3)ccc12 [Example 434, Cyclobutyl-{4-[4-(1-methoxyisoquinolin-6-yl)-phenoxy]-piperidin-1-yl}-methanone] | 0.1 to 0.999 µM
37 | CCC(=O)N1CCC(Oc2ccc(-c3cnc4ccccc4c3NC)cc2)CC1 [Example 235, 1-{4-[4-(4-Methylaminoquinolin-3-yl)-phenoxy]-piperidin-1-yl}-propan-1-one] | 1 to 10 µM
38 | CCC(=O)N1CCC(Oc2ccc(-c3ccc4cccnc4c3C(N)=O)cc2)CC1 [Example 337, 7-[4-(1-Propionyl-piperidin-4-yloxy)-phenyl]-quinoline-8-carboxylic acid amide] | 1 to 10 µM
39 | CCC(=O)N1[C@@H]2CC[C@H]1C[C@H](Oc1ccc(-c3ccc4cccnc4c3C)cc1)C2 [Example 361, 1-{exo-3-[4-(8-Methylquinolin-7-yl)-phenoxy]-8-aza-bicyclo[3.2.1]oct-8-yl}-propan-1-one HCl] | 1 to 10 µM
40 | O=C(C1CCC1)N1CCC(Oc2ccc(-c3cncc(-c4ccccc4)c3)cc2)CC1 [Example 385, Cyclobutyl-{4-[4-(5-phenylpyridin-3-yl)-phenoxy]-piperidin-1-yl}-methanone, TFA salt] | 1 to 10 µM
